Data published in article PMC10745346, “A Robust and Efficient FRET-Based Assay for Cannabinoid Receptor Ligands Discovery” (Molecules, 2023).
Like-named read-outs stand apart in the source and are kept apart here.

Assays:
[1] = target: T1, human CB2R (Homo sapiens, UniProt P34972); assay: Competition radioligand binding assay, [3H]-CP55940, human CB2R
T1 construct: expressed in transfected cells
Experimental: CB2R competition binding experiments were carried out by employing cell membranes obtained from a stable HEK-hCB2 cell line. Cell membranes were prepared by washing the cells twice in PBS and scraped from the plate in PBS. Cell suspension was centrifuged at 1500× g for 3 min at 4 °C. Cell pellet was suspended in lysis buffer (15 mM Tris-HCl, 2 mM MgCl2, 0.3 mM EDTA, 1 mM EGTA, pH = 7.5), homogenized, and centrifuged at 40,000× g for 25 min at 4 °C. Pellet was suspended in lysis buffer and centrifuged at 40,000× g for 1 h at 4 °C. The membrane’s pellet was suspended in storage buffer (7.5 mM Tris-HCl, 12.5 mM MgCl2, 0.3 mM EDTA, 1 mM EGTA, 250 mM sucrose, pH = 7.5). The protein concentration of the cell membrane suspension was 4781 µg/mL.
Radioligand binding assays were performed in a polypropylene 96-well plate containing 30 μg of membranes, […] (101 Ci/mmol, 1 mCi/mL, Perkin Elmer NET1051250UC), and the compounds under study. Non-specific binding was determined in the presence of GW405833 10 μM (Sigma G1421). The reaction mixture (Vt: 250 μL/well) was incubated at 30 °C for 90 min, 200 μL was transferred to GF/C 96-well plate (Millipore, Madrid, Spain), pre-treated with 0.5% of PEI, and treated with binding buffer (50mM Tris-HCl, 5mM MgCl2, 2.5 mM EGTA, 0.1% BSA. pH: 7.4); afterward, it was filtered and washed four times with 250 μL wash buffer (50mM Tris-HCl, 5mM MgCl2, 2.5 mM EGTA, 1% BSA. pH: 7.4), before its measurement in a microplate beta scintillation counter (Microbeta Trilux, PerkinElmer, Madrid, Spain).

[2] = target: T2, SNAP-CB2R (Homo sapiens, UniProt P34972); assay: Tag-lite competition binding assay with CELT-335, living cells expressing SNAP-CB2R
T2 construct: host or cells: HEK-293 cells, transient transfection (lipofectamine 2000), living adherent cells

[3] = target: T3, human CB1R (Homo sapiens, UniProt P21554); assay: Competition radioligand binding assay, [3H]-CP55940, human CB1R
T3 construct: expressed in transfected cells
Experimental: CB1R competition binding experiments were carried out by employing cell membranes obtained from a stable CHO-hCB1 cell line. Cell membranes were prepared by washing the cells twice with phosphate buffered saline (PBS) and scraped from the plate in lysis buffer (5 mM Tris-HCl, 2 mM EDTA, pH = 7.4). Cell suspension was homogenized and centrifuged at 1000× g for 10 min at 4 °C. Supernatant was isolated and centrifuged at 48,000× g for 1 h at 4 °C. The membrane’s pellet was suspended in a storage buffer (50 mM Tris-HCl, pH = 7.4). The protein concentration of the cell membrane suspension was 4292 µg/mL.
Radioligand binding assays were performed in a polypropylene 96-well plate containing 20 μg of cell membranes, 1.25 nM [^3H]-CP55940 (101 Ci/mmol, 1 mCi/mL, Perkin Elmer NET1051250UC), and the compounds under study. Non-specific binding was determined in the presence of Surinabant 10 μM. The reaction mixture (Vt: 250 μL/well) was incubated at 30 °C for 60 min, 200 μL was transferred to a GF/B 96-well plate (Millipore, Madrid, Spain) and treated with binding buffer (50 mM Tris-HCl, 5 mM MgCl2, 1 mM EDTA, 0.5% BSA. pH: 7.4); afterward, it was filtered and washed four times with 250 μL wash buffer (50 mM Tris-HCl, 5 mM MgCl2, 1 mM EDTA, 0.5% BSA. pH: 7.4), before its measurement in a microplate beta scintillation counter (Microbeta Trilux, PerkinElmer, Madrid, Spain).

[4] = target: T4, SNAP-CB1R (Homo sapiens, UniProt P21554); assay: cell-based; type: binding
T4 construct: expressed in transfected cells; host or cells: HEK-293T cells, transient transfection (PEI), living cells

[5] = target: hCB2R; conditions: literature value ref 32; cited from earlier work
[6] = target: CB1 receptor; conditions: literature value ref 31; cited from earlier work
[7] = 100 nM CELT-335, test compound 0-10 μM, mean ± SEM, read-out: pKi CB1 Tag-Lite Binding (CELT-335) (converted)

T2 sequence (P34972 whole entry): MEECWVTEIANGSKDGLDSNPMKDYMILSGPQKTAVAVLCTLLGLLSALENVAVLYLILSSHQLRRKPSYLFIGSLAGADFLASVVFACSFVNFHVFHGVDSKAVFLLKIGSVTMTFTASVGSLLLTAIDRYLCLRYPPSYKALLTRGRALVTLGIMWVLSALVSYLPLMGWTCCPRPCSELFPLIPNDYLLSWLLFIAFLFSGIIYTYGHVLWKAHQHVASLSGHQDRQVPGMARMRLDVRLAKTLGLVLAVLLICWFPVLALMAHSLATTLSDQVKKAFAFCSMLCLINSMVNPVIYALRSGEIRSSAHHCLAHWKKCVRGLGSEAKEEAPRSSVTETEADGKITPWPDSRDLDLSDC
T1 sequence (P34972 whole entry): as above
T3 sequence (P21554 whole entry): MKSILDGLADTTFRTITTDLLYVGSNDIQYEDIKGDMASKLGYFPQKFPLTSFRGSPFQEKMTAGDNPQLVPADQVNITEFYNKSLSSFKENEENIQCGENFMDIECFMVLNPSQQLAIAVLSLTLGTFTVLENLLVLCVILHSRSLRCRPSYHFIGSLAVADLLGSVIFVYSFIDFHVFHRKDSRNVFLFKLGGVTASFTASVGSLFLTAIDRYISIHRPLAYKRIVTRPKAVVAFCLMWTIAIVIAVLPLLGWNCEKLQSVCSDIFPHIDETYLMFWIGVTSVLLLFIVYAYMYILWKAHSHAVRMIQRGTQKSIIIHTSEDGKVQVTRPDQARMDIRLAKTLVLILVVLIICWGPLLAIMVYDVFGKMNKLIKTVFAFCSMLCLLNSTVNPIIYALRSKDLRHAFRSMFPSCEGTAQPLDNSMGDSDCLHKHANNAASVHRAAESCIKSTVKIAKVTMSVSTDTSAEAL
T4 sequence (P21554 whole entry): as above

SMILES	Ki [1] [µM]	Ki [2] [µM]	Ki [3] [µM]	Ki [4, 7] [µM]	pKi CB2 Radioligand Binding [5]	pKi CB2 Tag-Lite Binding (CELT-335) [2]	Ki [4] [µM]	pKi CB1 Radioligand Binding [6]	Ki ([1]; displacement of specific [3H]-CP55940 binding, mean ± SEM, read-out: pKi CB2 Radioligand Binding (converted)) [µM]	Ki ([3]; displacement of specific [3H]-CP55940 binding, mean ± SEM, read-out: pKi CB1 Radioligand Binding (converted)) [µM]
CC(C)C(NC(=O)c1cn(Cc2ccc(F)cc2)c2ccccc12)C(N)=O (stereo not drawn) [AB-FUBICA]	0.0288	0.0363	0.0036							
COC(=O)[C@@H](NC(=O)c1cn(Cc2ccc(F)cc2)c2ccccc12)C(C)C [AMB-FUBICA]	0.02	0.0219	0.0479	0.117						
CCCCCn1cc(C(=O)NC23CC4CC(CC(C4)C2)C3)c(=O)c2ccccc21 [Adamantyl-quinolone]			0.049		7.78 [32]	8.29 ± 0.11	0.0794			
COC(=O)C(NC(=O)c1cn(CC2CCCCC2)c2ccccc12)C(C)(C)C (stereo not drawn) [MDMB-CHMICA]		0.00234		0.00813				9.38 [31]		
Cc1c(C(=O)NCc2cccnc2)nn(-c2ccc(Cl)cc2Cl)c1-c1ccc(Cl)cc1 [MJ15]		0.324		0.0363					0.692	0.0631
